Here are results for 6 compounds from patent publication US6825210B2, “Tricyclic compounds useful as HIV reverse transcriptase inhibitors” (Bristol-Myers Squibb Pharma Company, priority 2001, dated 2004).

Converted amounts (≈) assume the structure as drawn.

Series [1] has as its system HIV-1 (RF). Kind of series: HIV RNA assay: microplate based compound evaluation in HIV-1 infected MT-2 cells. The class given is cell-based. The settings on record: Human immunodeficiency virus 1, MT2, 72 h; HIV-1 (RF) infected MT-2 cells, 3 days culture; value used to standardize the virus inoculum; read-out: IC90 (concentration of compound required to reduce the HIV RNA level by 90%). The procedure:
DNA Plasmids and in Vitro RNA Transcripts:
Plasmid pDAB 72 containing both gag and pol sequences of BH10 (bp 113-1816) cloned into PTZ 19R was prepared according to Erickson-Viitanen et al. AIDS Research and Human Retroviruses 1989, 5, 577. The plasmid was linearized with Bam HI prior to the generation of in vitro RNA transcripts using the Riboprobe Gemini system II kit (Promega) with T7 RNA polymerase. Synthesized RNA was purified by treatment with RNase free DNAse (Promega), phenol-chloroform extraction, and ethanol precipitation. RNA transcripts were dissolved in water, and stored at −70° C. The concentration of RNA was determined from the A260.
Biotinylated capture probes were purified by HPLC after synthesis on an Applied Biosystems (Foster City, Calif.) DNA synthesizer by addition of biotin to the 5′ terminal end of the oligonucleotide, using the biotin-phosphoramidite reagent of Cocuzza, Tet. Lett. 1989, 30, 6287. […]
MT-2 and MT-4 cells were maintained in RPMI 1640 supplemented with 5% fetal calf serum (FCS) for MT-2 cells or 10% FCS for MT-4 cells, 2 mM L-glutamine and 50 μg/mL gentamycin, all from Gibco. […] Infectious titers of HIV-1(RF) stocks were 1-3×10^7 PFU (plaque forming units)/mL as measured by plaque assay on MT-2 cells (see below). […]

As a reminder, the melting point is the temperature, or range, at which the solid turns liquid. On to `CC(C)OCC1(C(F)(F)F)c2cc(F)ccc2Nc2c1cc(Cl)c[n+]2[O-]` (stereo not drawn) [Compound 7, 3-Chloro-7-fluoro-5-isopropoxymethyl-5-trifluoromethyl-5,10-dihydro-benzo[b][1,8]naphthyridine 1-oxide], for which the melting point was 165 to 166 °C.

For `CC(C)OCC1(C(F)(F)F)c2cc(C#N)ccc2Nc2ncc(Br)cc21` (stereo not drawn) [Compound 15, 3-bromo-7-cyano-5-trifluoromethyl-5-isopropoxymethyl-5,10-dihydrobenzo[b][1,8]naphthyridine], the melting point was in the range of 76 to 77 °C.

`CC(C)OCC1(C(F)(F)F)c2cc(Cl)ccc2Nc2ncc(Cl)cc21` (stereo not drawn) [Compound 9, 3,7-Dichloro-5-isopropoxymethyl-5-trifluoromethyl-5,10-dihydro-benzo[b][1,8]naphthyridine] returned a melting point of 137 to 138 °C.

In turn, `CC(C)OCC1(C(F)(F)F)c2cc(F)ccc2Nc2ncc(Cl)cc21` (stereo not drawn) [Compound 6, 3-Chloro-7-fluoro-5-isopropoxymethyl-5-trifluoromethyl-5,10-dihydro-benzo[b][1,8]naphthyridine] yielded a melting point of 96 to 97 °C.

As to `Nc1ccn([C@H]2CC[C@@H](CO)O2)c(=O)n1` [ddC, 2′,3′-dideoxycytidine], the IC90 in series [1] was 0.2 µg/mL (≈ 0.947 µM).

Consider `CC(C)OCC1(C(F)(F)F)c2cc(C#N)ccc2Nc2ncc(C#N)cc21` (stereo not drawn) [Compound 17, 3,7-dicyano-5-trifluoromethyl-5-isopropoxymethyl-5,10-dihydrobenzo[b][1,8]naphthyridine], for which the melting point was 226 to 227 °C.
